Experimental data from ChEMBL document CHEMBL1201862, “PubChem BioAssay data set” (2004).
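Dose response: 5 concentrations. Exposure: 48 h. Format: 96-well plates. Endpoint: linear interpolation; highest concentration if not reached. GI50: concentration for 50% inhibition of growth.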 The source made the active and inactive calls. Cut-off read from the data, not from the text of the source: active = GI50 up to about 1.1 µM and inactive = higher.

Columns and labels:
Test in all cases: NCI tumour cell line growth inhibition, 48 h
[1] = system: 786-0
[2] = system: EKVX
[3] = system: COLO 205
[4] = system: MOLT-4
[5] = system: HCT-116
[6] = system: SK-MEL-5
[7] = system: OVCAR-4
[8] = system: KM12
[9] = system: HL-60
[10] = system: ACHN
[11] = system: OVCAR-5
[12] = system: CAKI-1
[13] = system: RPMI-8226
[14] = system: UO-31
[15] = system: LXFL 529
[16] = system: T47D
[17] = system: PC-3
[18] = system: NCI/ADR-RES
[19] = system: MDA-N
[20] = system: SR

Row | Structure (SMILES) | GI50 [1] | GI50 [2] | GI50 [3] | GI50 [4] | GI50 [5] | GI50 [6] | GI50 [7] | GI50 [8] | GI50 [9] | GI50 [10] | GI50 [11] | GI50 [12] | GI50 [13] | GI50 [14] | GI50 [15] | GI50 [16] | GI50 [17] | GI50 [18] | GI50 [19] | GI50 [20]
1 | COc1ccc(CCCN2c3ccccc3Sc3ccccc32)cc1 | 35.1 µM (inactive) | > 100 µM (inactive) | 43.4 µM (inactive) | 19.6 µM (inactive) | 36.3 µM (inactive) | > 100 µM (inactive) | 53.2 µM (inactive) | > 100 µM (inactive) | 41.3 µM (inactive) | > 100 µM (inactive) | > 100 µM (inactive) | > 100 µM (inactive) | 32.3 µM (inactive) | > 100 µM (inactive) | 73.1 µM (inactive) |  |  |  |  | 
2 | OC(c1cc(-c2ccccc2)nc2c1ccc1ccccc12)C1CCCCN1 (stereo not drawn) | 1.64 µM (inactive) | 1.93 µM (inactive) | 1.95 µM (inactive) | 2.18 µM (inactive) | 1.63 µM (inactive) | 2.8 µM (inactive) | 1.96 µM (inactive) | 1.86 µM (inactive) | 0.855 µM (active) | 1.83 µM (inactive) | 1.6 µM (inactive) | 1.91 µM (inactive) | 1.12 µM (active) | 1.02 µM (active) |  | 1.93 µM (inactive) | 1.71 µM (inactive) | 2.1 µM (inactive) | 1.64 µM (inactive) | 1.18 µM (inactive)
3 | CC1=C(C(=O)Nc2ccc([N+](=O)[O-])cc2)C(c2ccco2)C(C(=O)Nc2ccc([N+](=O)[O-])cc2)=C(C)N1 | 31.8 µM (inactive) | 3.63 µM (inactive) | 15.8 µM (inactive) | 4.33 µM (inactive) |  | 14.5 µM (inactive) | 3.88 µM (inactive) | 6.41 µM (inactive) | 5.18 µM (inactive) | 4.4 µM (inactive) | 30.9 µM (inactive) | 20.3 µM (inactive) | 2.9 µM (inactive) | 7.24 µM (inactive) | 6.75 µM (inactive) |  |  |  |  | 
4 | CCN(CC)C(=S)SNc1ccc(S(N)(=O)=O)cc1 | 29.9 µM (inactive) | > 100 µM (inactive) | 68.7 µM (inactive) | 0.789 µM (active) | 47.3 µM (inactive) | 30.5 µM (inactive) | > 83 µM (inactive) | > 71.6 µM (inactive) | 0.064 µM (active) | 45.1 µM (inactive) | 28.4 µM (inactive) | 36.8 µM (inactive) | 20.2 µM (inactive) | 33.2 µM (inactive) |  | 91.6 µM (inactive) | 47.8 µM (inactive) | > 83.6 µM (inactive) | 69.3 µM (inactive) | 33.2 µM (inactive)
5 | CN(C)c1nc(NC23CC4CC(CC(C4)C2)C3)nc(N(C)C)n1 | 15.7 µM (inactive) | 11.3 µM (inactive) | 11.7 µM (inactive) | 10 µM (inactive) | 20.7 µM (inactive) | 11.1 µM (inactive) | > 100 µM (inactive) | 5.66 µM (inactive) | 3.61 µM (inactive) | 22.3 µM (inactive) | 10.2 µM (inactive) | 37.6 µM (inactive) | 3.58 µM (inactive) | 31.4 µM (inactive) |  | 7.29 µM (inactive) | 8.32 µM (inactive) | 23.4 µM (inactive) | 8.67 µM (inactive) | 14.5 µM (inactive)
6 | COc1ccc2c(c1)CN1C(=N2)CSC1c1cc([N+](=O)[O-])ccc1Cl (stereo not drawn) | 37.9 µM (inactive) | 23.6 µM (inactive) | 30.8 µM (inactive) | 29.2 µM (inactive) | 27.2 µM (inactive) | 25.6 µM (inactive) | 39.1 µM (inactive) | 28.1 µM (inactive) | 16.8 µM (inactive) | 44.7 µM (inactive) | 58.5 µM (inactive) | 27.3 µM (inactive) | 21 µM (inactive) | 41.1 µM (inactive) |  | 32.4 µM (inactive) | 36.1 µM (inactive) | 25.1 µM (inactive) | 17.8 µM (inactive) | 33.8 µM (inactive)
7 | O=C(CN1CCNCCN(CC(=O)N2CCCCC2)CCNCC1)N1CCCCC1 | 43.6 µM (inactive) | > 100 µM (inactive) | > 100 µM (inactive) | 84.7 µM (inactive) | 42.5 µM (inactive) | 71.8 µM (inactive) | > 100 µM (inactive) | 17.6 µM (inactive) | 32.2 µM (inactive) | > 100 µM (inactive) | > 100 µM (inactive) | > 100 µM (inactive) | > 100 µM (inactive) | > 100 µM (inactive) |  | > 100 µM (inactive) | > 100 µM (inactive) | > 100 µM (inactive) | > 100 µM (inactive) | 34.4 µM (inactive)
8 | CO[C@@H]1C[C@H]2[C@@H]3CC[C@H]([C@@H](C)COC(C)=O)[C@@]3(C)CC[C@@H]2[C@@]2(C)CC[C@H]3C[C@]312 | 16.5 µM (inactive) | 14.5 µM (inactive) | 0.879 µM (active) | 15.3 µM (inactive) | 10.2 µM (inactive) | 3.61 µM (inactive) | 22 µM (inactive) | 11.1 µM (inactive) | 3.89 µM (inactive) | 16.6 µM (inactive) | 11.5 µM (inactive) | 9.12 µM (inactive) | 8.67 µM (inactive) | 18.5 µM (inactive) |  | 13.2 µM (inactive) | 15.2 µM (inactive) | 14.1 µM (inactive) | 16.9 µM (inactive) | 10 µM (inactive)
